This is an account of results in ChEMBL document CHEMBL1126805, “Synthesis and evaluation of a series of benzylaniline hydrochlorides as potential cytotoxic and antimitotic agents acting by inhibition of tubulin polymerization” (J Med Chem, 1993).

Structures are written as SMILES.

The subject of one assay is M14. Briefly: Tested for cytotoxicity against M14 melanoma. It counts as functional, Homo sapiens. Particulars: Homo sapiens, M14.
For `COc1cc(CNc2ccc(SC)cc2)cc(OC)c1OC`, the GI50 (in general, the concentration giving 50% growth inhibition) was 5.26 µM.
The same measure, in the same setting: with `COc1cc(/C=N/c2ccc(C(C)C)cc2)cc(OC)c1OC` the figure was over 100 µM; with `CCc1ccc(NCc2cc(OC)c(OC)c(OC)c2)cc1`, 0.315 µM.
The same measure, in the same setting: with `CCOc1ccc(/N=C/c2cc(OC)c(OC)c(OC)c2)cc1` the figure was over 100 µM.

A further assay deals with Tubulin (Bos taurus, UniProt Q6B856+Q862F3). Kind of assay: In vitro inhibition of bovine electrophoretically homogeneous tubulin polymerization. It counts as functional.
Chain of Tubulin (Q6B856 whole entry): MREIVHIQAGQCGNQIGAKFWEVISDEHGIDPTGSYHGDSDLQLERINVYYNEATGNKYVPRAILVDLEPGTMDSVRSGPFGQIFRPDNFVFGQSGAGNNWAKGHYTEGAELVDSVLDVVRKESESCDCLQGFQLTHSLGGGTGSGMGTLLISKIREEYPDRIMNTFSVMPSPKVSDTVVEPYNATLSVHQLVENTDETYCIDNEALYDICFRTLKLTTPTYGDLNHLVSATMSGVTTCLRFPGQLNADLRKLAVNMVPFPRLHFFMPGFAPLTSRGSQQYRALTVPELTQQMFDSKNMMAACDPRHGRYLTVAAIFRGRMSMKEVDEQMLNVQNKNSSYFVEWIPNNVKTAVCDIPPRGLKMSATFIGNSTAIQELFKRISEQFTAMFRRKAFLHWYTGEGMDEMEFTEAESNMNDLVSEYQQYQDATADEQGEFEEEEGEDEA
Chain of Tubulin (Q862F3 whole entry): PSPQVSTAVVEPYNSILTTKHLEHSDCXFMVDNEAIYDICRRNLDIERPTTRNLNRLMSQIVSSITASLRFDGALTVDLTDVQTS
Conditions: not given
As for `COc1ccc(NCc2cc(OC)c(OC)c(OC)c2)cc1`, the IC50 – broadly, the concentration needed to halve the response being measured – was found to be 4.6 µM.
The same measure, in the same setting: as for `COc1ccc(/N=C/c2cc(OC)c(OC)c(OC)c2)cc1`, the figure is over 40 µM; as for `COc1ccc(/C=C\c2cc(OC)c(OC)c(OC)c2)cc1`, 2 µM; as for `COc1cc(CNc2ccc(SC)cc2)cc(OC)c1OC`, over 40 µM.
The same measure, in the same setting: as for `COc1cc(/C=N/c2ccc(C(C)C)cc2)cc(OC)c1OC`, the figure is over 40 µM.
Same read-out and setting: as for `CCc1ccc(NCc2cc(OC)c(OC)c(OC)c2)cc1`, the figure is 3 µM.
In turn, `COc1cc(CNc2ccc(C(C)C)cc2)cc(OC)c1OC` yielded an IC50 of over 40 µM.
On the same count and under the same terms, with `CCOc1ccc(/N=C/c2cc(OC)c(OC)c(OC)c2)cc1` the figure was over 40 µM; with `CCCc1ccc(NCc2cc(OC)c(OC)c(OC)c2)cc1`, over 40 µM.

The subject of a further assay is DMS-273. Kind of assay: Tested for cytotoxicity against DMS 273 (small-cell lung cancer) cell line. It counts as functional, Homo sapiens.
Conditions: not given
Regarding `COc1ccc(NCc2cc(OC)c(OC)c(OC)c2)cc1`, the GI50 worked out at 0.141 µM.
Same read-out and setting: as for `CCc1ccc(NCc2cc(OC)c(OC)c(OC)c2)cc1`, the figure is 0.135 µM.

Still in this assay, the particulars now being: Homo sapiens, DMS-273.
`COc1ccc(/N=C/c2cc(OC)c(OC)c(OC)c2)cc1` showed a concentration for 50% growth inhibition (GI50) of 33 µM.
On the same count and under the same terms, with `COc1cc(CNc2ccc(SC)cc2)cc(OC)c1OC` the figure was 3.09 µM; with `COc1cc(/C=N/c2ccc(C(C)C)cc2)cc(OC)c1OC`, 52.5 µM; with `COc1cc(CNc2ccc(C(C)C)cc2)cc(OC)c1OC`, 12.9 µM.
On the same count and under the same terms, as for `CCOc1ccc(/N=C/c2cc(OC)c(OC)c(OC)c2)cc1`, the figure is over 100 µM; as for `CCCc1ccc(NCc2cc(OC)c(OC)c(OC)c2)cc1`, 16.2 µM.

The subject of a further assay is CAKI-1. Kind of assay: Tested for cytotoxicity against CAKI-1 renal cancer.
Conditions: not given
Type of assay: functional, Homo sapiens.
Turning to `COc1ccc(NCc2cc(OC)c(OC)c(OC)c2)cc1`, halving of growth (GI50) required 0.458 µM.

The same assay, now with this note: Homo sapiens, CAKI-1.
As to `COc1ccc(/N=C/c2cc(OC)c(OC)c(OC)c2)cc1`, the concentration for 50% growth inhibition (GI50) is over 100 µM.
As for `COc1cc(CNc2ccc(SC)cc2)cc(OC)c1OC`, the concentration for 50% growth inhibition (GI50) was found to be 32 µM.
`COc1cc(/C=N/c2ccc(C(C)C)cc2)cc(OC)c1OC` gave a GI50 of over 100 µM.
On the same count and under the same terms, as for `CCc1ccc(NCc2cc(OC)c(OC)c(OC)c2)cc1`, the figure is 0.354 µM; as for `CCOc1ccc(/N=C/c2cc(OC)c(OC)c(OC)c2)cc1`, over 100 µM.

The next assay relates to HL-60. Briefly: Tested for cytotoxicity against human cancer cell lines HL-60(TB) (leukemia) cell line. Type of assay: functional.
Conditions: not given
Compound `COc1ccc(NCc2cc(OC)c(OC)c(OC)c2)cc1` showed a GI50 of 0.115 µM.

Still in this assay, the particulars now being: Homo sapiens, HL-60.
In turn, `COc1cc(CNc2ccc(SC)cc2)cc(OC)c1OC` returned a GI50 of 3.7 µM.
The same measure, in the same setting: with `COc1cc(/C=N/c2ccc(C(C)C)cc2)cc(OC)c1OC` the figure was over 100 µM; with `CCc1ccc(NCc2cc(OC)c(OC)c(OC)c2)cc1`, 0.168 µM; with `CCOc1ccc(/N=C/c2cc(OC)c(OC)c(OC)c2)cc1`, over 100 µM.

The subject of a further assay is COLO 205. Kind of assay: Tested for cytotoxicity against COLO 205 (colon cancer) cell line. It counts as functional, Homo sapiens.
Conditions: not given
On to `COc1ccc(NCc2cc(OC)c(OC)c(OC)c2)cc1`, for which the GI50 came to 0.235 µM.

The same assay, now with this note: Homo sapiens, COLO 205.
In turn, `COc1cc(CNc2ccc(SC)cc2)cc(OC)c1OC` displayed a concentration for 50% growth inhibition (GI50) of 3.88 µM.
Same read-out and setting: with `COc1cc(/C=N/c2ccc(C(C)C)cc2)cc(OC)c1OC` the figure was over 100 µM.
Same read-out and setting: with `CCc1ccc(NCc2cc(OC)c(OC)c(OC)c2)cc1` the figure was 0.344 µM.

For the next assay, the system named is NCI-H522. Kind of assay: Tested for cytotoxicity against NCI-H522 (non-small-cell lung cancer) cell line.
Conditions: not given
It counts as functional, Homo sapiens.
`COc1ccc(NCc2cc(OC)c(OC)c(OC)c2)cc1` yielded a 50% growth inhibitory concentration (GI50) of 0.412 µM.

The assay is the same for the next values; noted with them: Homo sapiens, NCI-H522.
Compound `COc1ccc(/N=C/c2cc(OC)c(OC)c(OC)c2)cc1` yielded a GI50 of over 100 µM.
With `COc1cc(CNc2ccc(SC)cc2)cc(OC)c1OC`, the GI50 was determined as 4.68 µM.
Turning to `COc1cc(/C=N/c2ccc(C(C)C)cc2)cc(OC)c1OC`, the GI50 was over 100 µM.
`CCc1ccc(NCc2cc(OC)c(OC)c(OC)c2)cc1` displayed a GI50 of 0.234 µM.
On the same count and under the same terms, with `CCOc1ccc(/N=C/c2cc(OC)c(OC)c(OC)c2)cc1` the figure was over 100 µM.

In a further assay the test system is OVCAR-3. Kind of assay: Tested for cytotoxicity against OVCAR-3 (ovarian cancer) cell line.
Conditions: not given
It counts as functional, Homo sapiens.
`COc1ccc(NCc2cc(OC)c(OC)c(OC)c2)cc1` displayed a 50% growth inhibitory concentration (GI50) of 0.363 µM.

The assay is the same for the next values; noted with them: Homo sapiens, OVCAR-3.
Take `COc1ccc(/N=C/c2cc(OC)c(OC)c(OC)c2)cc1`: the concentration for 50% growth inhibition (GI50) is over 100 µM.
The compound `COc1cc(CNc2ccc(SC)cc2)cc(OC)c1OC` registered a GI50 of 5.93 µM.
`COc1cc(/C=N/c2ccc(C(C)C)cc2)cc(OC)c1OC` registered a GI50 of over 100 µM.
Still for that read-out and setting: as for `CCc1ccc(NCc2cc(OC)c(OC)c(OC)c2)cc1`, the figure is 0.283 µM.
For the compound `CCOc1ccc(/N=C/c2cc(OC)c(OC)c(OC)c2)cc1`, the GI50 is over 100 µM.

Another assay relates to SF-295. Briefly: In vitro cytotoxicity against SF-295 (CNS cancer) cell line. It counts as functional, Homo sapiens.
Conditions: not given
With `COc1ccc(NCc2cc(OC)c(OC)c(OC)c2)cc1`, the GI50 worked out at 0.266 µM.
In turn, `COc1cc(CNc2ccc(SC)cc2)cc(OC)c1OC` displayed a GI50 of 7.28 µM.

Staying with this assay, now noted: Homo sapiens, SF-295.
Take `COc1cc(/C=N/c2ccc(C(C)C)cc2)cc(OC)c1OC`: the GI50 was over 100 µM.
On the same count and under the same terms, with `CCc1ccc(NCc2cc(OC)c(OC)c(OC)c2)cc1` the figure was 0.266 µM; with `CCOc1ccc(/N=C/c2cc(OC)c(OC)c(OC)c2)cc1`, over 100 µM.
